Test results reported in patent publication US11180484B2, “Pyrazole derivatives as plasma kallikrein inhibitors” (KALVISTA PHARMACEUTICALS LIMITED, priority 2016, dated 2021).
“And” between values parts separate entries of the source, which are not always exact repeats. Equal entries are not always repeated.

Tests used:
plasmin = plasmin (Homo sapiens (Human), UniProt P00747); assay: Determination of enzyme selectivity: plasmin; assay type: biochemical; conditions: substrate at Km concentration
plasmin, sequence (P00747 581-810): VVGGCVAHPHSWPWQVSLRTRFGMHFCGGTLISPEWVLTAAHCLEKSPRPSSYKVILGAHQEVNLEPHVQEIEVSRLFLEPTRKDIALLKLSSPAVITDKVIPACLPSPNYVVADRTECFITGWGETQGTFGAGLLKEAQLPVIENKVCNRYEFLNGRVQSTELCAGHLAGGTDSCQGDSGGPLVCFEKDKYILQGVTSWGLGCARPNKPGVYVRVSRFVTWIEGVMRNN
plasmin, sequence (P00747 97-580): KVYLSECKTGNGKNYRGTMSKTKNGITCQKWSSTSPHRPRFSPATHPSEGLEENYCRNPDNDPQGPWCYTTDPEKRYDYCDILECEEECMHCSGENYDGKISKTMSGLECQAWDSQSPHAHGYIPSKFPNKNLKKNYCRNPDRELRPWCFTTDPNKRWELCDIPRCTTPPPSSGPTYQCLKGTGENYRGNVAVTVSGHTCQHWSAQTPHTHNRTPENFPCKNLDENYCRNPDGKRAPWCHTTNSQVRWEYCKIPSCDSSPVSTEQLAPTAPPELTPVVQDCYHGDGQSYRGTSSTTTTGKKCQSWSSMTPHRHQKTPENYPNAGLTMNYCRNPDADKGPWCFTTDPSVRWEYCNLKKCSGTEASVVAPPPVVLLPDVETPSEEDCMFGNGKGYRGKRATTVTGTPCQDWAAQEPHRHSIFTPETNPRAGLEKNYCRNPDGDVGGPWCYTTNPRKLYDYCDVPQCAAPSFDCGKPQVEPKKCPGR
Method: (§3) Human serine protease enzymes plasmin, thrombin and trypsin were assayed for enzymatic activity using an appropriate fluorogenic substrate. Protease activity was measured by monitoring the accumulation of liberated fluorescence from the substrate over 5 minutes. The linear rate of fluorescence increase per minute was expressed as percentage (%) activity. The Km for the cleavage of each substrate was determined by standard transformation of the Michaelis-Menten equation.

thrombin = thrombin (Homo sapiens (Human), UniProt P00734); assay: Determination of enzyme selectivity: thrombin; assay type: biochemical; conditions: substrate at Km concentration
Method: as §3

[1] = Predicted plasma clearance (Clp), well-stirred model, human; assay type: in vitro ADME; conditions: percentage of hepatic blood flow
Human plasma kallikrein [2] = biological target: T1, Human plasma kallikrein (Homo sapiens (Human), UniProt P03952); assay: Determination of the IC50 for plasma kallikrein; assay type: biochemical; conditions: 25° C., substrate H-DPro-Phe-Arg-AFC; read-out: IC50 (human PKal)
T1 sequence (P03952 391-638): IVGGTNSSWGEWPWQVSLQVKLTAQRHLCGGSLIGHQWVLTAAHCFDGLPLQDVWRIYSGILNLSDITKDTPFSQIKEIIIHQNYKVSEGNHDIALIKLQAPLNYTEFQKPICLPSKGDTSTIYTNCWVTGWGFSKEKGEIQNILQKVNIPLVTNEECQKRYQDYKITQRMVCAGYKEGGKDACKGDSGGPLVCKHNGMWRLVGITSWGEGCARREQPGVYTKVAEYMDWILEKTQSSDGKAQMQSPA
T1 sequence (P03952 20-390): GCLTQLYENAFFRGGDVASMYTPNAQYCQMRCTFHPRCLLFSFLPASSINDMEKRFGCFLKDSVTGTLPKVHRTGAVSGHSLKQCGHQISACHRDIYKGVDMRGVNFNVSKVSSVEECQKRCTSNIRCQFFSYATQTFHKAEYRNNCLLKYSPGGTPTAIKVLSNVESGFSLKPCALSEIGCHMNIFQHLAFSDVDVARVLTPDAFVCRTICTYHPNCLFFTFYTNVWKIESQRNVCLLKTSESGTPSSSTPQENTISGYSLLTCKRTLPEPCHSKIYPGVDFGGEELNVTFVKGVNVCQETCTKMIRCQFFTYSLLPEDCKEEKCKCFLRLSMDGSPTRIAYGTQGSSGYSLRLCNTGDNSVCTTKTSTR
Method: (§1) Human plasma kallikrein (Protogen) was incubated at 25° C. with the fluorogenic substrate H-DPro-Phe-Arg-AFC and various concentrations of the test compound. Residual enzyme activity (initial rate of reaction) was determined by measuring the change in […] at 410 nm and the IC50 value for the test compound was determined.

trypsin = assay: Determination of enzyme selectivity: trypsin; assay type: biochemical, human; conditions: substrate at Km concentration
Method: as §3

[3] = Pharmacokinetics following a single oral dose in male Sprague-Dawley rats; assay type: in vivo; conditions: rat, single po dose (nominal 10 mg/kg; actual dose per row in column Dose po), 10% DMSO/10% cremophor/80% SWFI, plasma
Method: Pharmacokinetic studies of the compounds in Table 13 were performed to assess the pharmacokinetics following a single oral dose in male Sprague-Dawley rats. Two rats were given a single po dose of 5 mL/kg of a nominal 2 mg/mL (10 mg/kg) composition of test compound in vehicle. Following dosing, blood samples were collected over a period of 24 hours. Sample times were 5, 15 and 30 minutes then 1, 2, 4, 6, 8 and 12 hours. Following collection, blood samples were centrifuged and the plasma fraction analysed for concentration of test compound by LCMS.

[4] = Intrinsic clearance in human liver microsomes; assay type: in vitro ADME; conditions: human liver microsomes 0.5 mg/mL, 5 μM test compound, 37° C.; read-out: Human liver microsome (Clint μL/min/mg protein)
Method: (§2) Rat or human liver microsomes (0.5 mg/mL; Corning) were incubated with 5 μM test compound at 37° C. on a shaking platform (150 rpm). Samples were taken at 0, 6, 12, 18, 24 and 60 min and test compound concentrations were determined by LCMS against a calibration curve.

Human Factor XIIa = Human Factor XIIa (Homo sapiens (Human), UniProt P00748); assay: Factor XIIa inhibitory activity in vitro; assay type: biochemical; conditions: 25° C., substrate H-DPro-Phe-Arg-AFC; read-out: IC50 (human FXIIa)
Human Factor XIIa, sequence (P00748 373-615): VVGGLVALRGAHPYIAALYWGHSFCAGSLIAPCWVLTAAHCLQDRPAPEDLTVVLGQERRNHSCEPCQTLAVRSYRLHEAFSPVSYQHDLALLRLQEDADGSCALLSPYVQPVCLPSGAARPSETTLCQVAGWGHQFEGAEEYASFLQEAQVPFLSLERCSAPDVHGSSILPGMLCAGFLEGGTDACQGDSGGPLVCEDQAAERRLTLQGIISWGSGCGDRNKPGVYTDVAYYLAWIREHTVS
Method: as §1, with “Factor XIIa (Enzyme Research Laboratories)” for “plasma kallikrein (Protogen)”

[5] = Predicted plasma clearance (Clp), well-stirred model, rat; assay type: in vitro ADME; conditions: percentage of hepatic blood flow
[6] = Plasma protein binding (PPB), rapid equilibrium dialysis, human plasma; assay type: in vitro ADME; conditions: 5 μM test compound, dialysis 5 hrs at 37° C.
Human FXIa = Human FXIa (Homo sapiens (Human), UniProt P03951); assay: Determination of the % inhibition / IC50 for FXIa; assay type: biochemical; conditions: for inhibition at 40 µM: 40 μM test compound, read-out: % Inhibition @ 40 μM (human FXIa); for IC50: 25° C., substrate Z-Gly-Pro-Arg-AFC
Human FXIa, sequence (P03951 388-625): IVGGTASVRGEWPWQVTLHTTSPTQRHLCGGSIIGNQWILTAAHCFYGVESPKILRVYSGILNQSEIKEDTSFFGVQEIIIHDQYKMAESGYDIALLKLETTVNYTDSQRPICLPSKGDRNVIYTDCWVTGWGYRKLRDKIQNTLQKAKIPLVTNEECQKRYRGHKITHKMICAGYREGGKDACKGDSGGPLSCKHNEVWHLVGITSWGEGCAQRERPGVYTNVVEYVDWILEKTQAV
Human FXIa, sequence (P03951 19-387): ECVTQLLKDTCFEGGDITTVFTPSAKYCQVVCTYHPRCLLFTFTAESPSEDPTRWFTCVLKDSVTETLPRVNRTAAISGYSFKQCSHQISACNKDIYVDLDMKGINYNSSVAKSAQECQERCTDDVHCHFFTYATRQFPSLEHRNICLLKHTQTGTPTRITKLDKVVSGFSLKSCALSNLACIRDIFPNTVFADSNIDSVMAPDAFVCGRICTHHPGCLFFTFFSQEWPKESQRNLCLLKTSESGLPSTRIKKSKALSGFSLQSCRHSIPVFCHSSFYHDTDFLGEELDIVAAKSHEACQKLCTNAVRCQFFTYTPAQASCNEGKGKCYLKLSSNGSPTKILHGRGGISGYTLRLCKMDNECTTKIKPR
Method: FXIa inhibitory activity in vitro was determined using standard published methods (see e.g. Johansen et al., Int. J. Tiss. Reac. 1986, 8, 185; Shori et al., Biochem. Pharmacol., 1992, 43, 1209; Sturzebecher et al., Biol. Chem. Hoppe-Seyler, 1992, 373, 1025). […]

[7] = Intrinsic clearance in rat liver microsomes; assay type: in vitro ADME; conditions: rat liver microsomes 0.5 mg/mL, 5 μM test compound, 37° C.; read-out: rat liver microsome (Clint μL/min/mg protein)
Method: as §2

[8] = In vitro permeability, Caco-2 model for oral absorption; assay type: in vitro ADME; conditions: human, apical to basolateral, 50 μM test compound, 37° C.
Outline: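 Caco-2 monolayers grown on collagen inserts for 3 days, with 50 μM compound added apically and incubated 1 hour at 37° C with shaking. Apical-to-basolateral transport measured by LCMS in both compartments. Monolayer integrity checked by TEER before and after, and by Lucifer Yellow flux.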

Human plasma kallikrein [9] = biological target: T1, Human plasma kallikrein; assay: Determination of the Ki for plasma kallikrein (mixed-model inhibition); assay type: biochemical; conditions: for Ki: human plasma kallikrein, mixed-model inhibition equation

With `COCc1nn(Cc2ccc(Cn3ccccc3=O)cc2)cc1C(=O)NCc1c(-n2cnnn2)ccc(OC)c1F` [Example 39, N-{[2-Fluoro-3-methoxy-6-(1,2,3,4-tetrazol-1-yl)phenyl]methyl}-3-(methoxymethyl)-1-({4-[(2-oxopyridin-1-yl)methyl]phenyl}methyl)pyrazole-4-carboxamide] the IC50 (plasmin) was 31.2 µM, the IC50 (thrombin) was 19.3 µM and the “Predicted in vivo human Clp (% LBF)” value [1] was 21 % LBF. The IC50 (Human plasma kallikrein [2]) was 0.0006 µM, the IC50 (trypsin) was over 40 µM and the Cmax [3] was 187 ng/mL. For the same molecule, the Tmax [3] was 30 min, the microsomal CLint at 5 μM [4] was 29 µL/min/mg and the IC50 (Human Factor XIIa) was over 4 µM. For the same molecule, the “Predicted in vivo rat Clp (% LBF)” value [5] was 5 % LBF, the fraction unbound at 5 h, 5 μM [6] was 0.22 and the inhibition at 40 µM (Human FXIa) was 91%. It also gave an IC50 (Human FXIa) of 3.7 µM, a microsomal CLint at 5 μM [7] of 19 µL/min/mg and a Papp at 1 h, 50 μM [8] of 6 ×10⁻⁶ cm/s. The Ki (Human plasma kallikrein [9]) was 0.00026 µM and the Alpha (Human plasma kallikrein [9]; parameter of the mixed-model equation indicating mechanism of inhibition) was 1.7.

In the case of `COCc1nn(Cc2cnc(N3CCCC3)nc2)cc1C(=O)NCc1c(-n2cnnn2)ccc(OC)c1F` [Example 79, N-{[2-Fluoro-3-methoxy-6-(1,2,3,4-tetrazol-1-yl)phenyl]methyl}-3-(methoxymethyl)-1-{[2-(pyrrolidin-1-yl)pyrimidin-5-yl]methyl}pyrazole-4-carboxamide], the IC50 (plasmin) is reported as 12 µM, the IC50 (thrombin) is reported as 7.31 µM and the “Predicted in vivo human Clp (% LBF)” value [1] is reported as 1 % LBF. The IC50 (Human plasma kallikrein [2]) was 0.0015 µM, the IC50 (trypsin) was over 40 µM and the Cmax [3] was 807 ng/mL. It also gave a Tmax [3] of 45 min, a microsomal CLint at 5 μM [4] of 4 µL/min/mg and an IC50 (Human Factor XIIa) of over 40 µM. The “Predicted in vivo rat Clp (% LBF)” value [5] was 3 % LBF, the fraction unbound at 5 h, 5 μM [6] was 0.09 and the inhibition at 40 µM (Human FXIa) was 96%. The IC50 (Human FXIa) was 0.127 µM, the microsomal CLint at 5 μM [7] was 23 µL/min/mg and the Papp at 1 h, 50 μM [8] was 19 ×10⁻⁶ cm/s. The Ki (Human plasma kallikrein [9]) was 0.00038 µM and 0.00023 µM.
